Experiments:
translation = details: previous studies; cited from earlier work
Huh7.5.1 cells [1] = assay: MTS cell viability assay; type: cell-based, human; details: 3 h treatment, 72 h incubation
Text: In this comparison, niclosamide was used as a positive control, which is known as HCV inhibitor (unclear mechanisms). Data from CellTiter-Glo assay was obtained from separate experiments conducted on a different date.
MTS (3-(4,5-dimethylthiazol-2-yl)-5-(3-carboxymethoxyphenyl)-2-(4-sulfophenyl)-2H-tetrazolium)) assay is a colorimetric assay used to determine the mitochondrial metabolic rate by quantifying the reduced formazan product of MTS in cells to reflect viable cells. To determine the CC50 of each compound, Huh7.5.1 cells were treated with compounds or DMSO at indicated doses for 3 h in 96-well plates. After removal of compounds, cells were further incubated for 72 h prior to conducting the viability assay. The MTS assay in this study is accordance with a protocol provided by manufacturer (Promega, Madison, Wis. USA). One-fifth volume of MTS reagent was added into the culture supernatant at indicated time points. Plates were incubated at 37° C. for 3 hours with 5% CO2 followed by measuring the absorbance at 490 nanometers (nm) with an ELISA reader (SpectraMax Plus 385, Molecular Devices, USA). Percentages of toxicity were calculated using the formulas: 100-percentage of vial cells relative to that from the dimethyl sulfoxide (DMSO) treated group (100%) (n=3) (FIG. 68-FIG. 71).

JFH-1 HCVcc-Luc = assay: microbe, parasite or virus in culture; type: cell-based, Hepatitis C virus; details: for inhibition of HCV infection (in words): Huh7.5.1 cells, comparisons are to aglaroxin C (6); for EC50: Hepatitis C virus, Huh-7.5.1, read-out: EC50, inhibition of HCV infection
Huh7.5.1 cells [2] = assay: Cytotoxicity, CellTiter-Glo Cell Viability Luminescent Assay; type: cell-based, human; details: Huh7.5.1 cells; comparisons are to aglaroxin C (6)
Protocol: (§1) To determine the […] of each compound, Huh7.5.1 cells were treated with compounds or DMSO at indicated doses for 3 h in 96-well plates. After removal of compounds, cells were further incubated for 72 h prior to the viability assay. The numbers of viable cells in culture were determined using the CellTiter-Glo Cell Viability Luminescent Assay kit according to the manufacturer's instruction (Promega). Percentages of toxicity were calculated using the formulas: 100-percentage of vial cells relative to that from the dimethyl sulfoxide (DMSO) treated group (100%) (n=3) (FIG. 20-FIG. 57).

[3] = system: cap-dependent Firefly luciferase (FLuc) translation; assay: In vitro translation of bicistronic FF/HCV/Ren mRNA in Krebs-2 extracts, cap-dependent; type: biochemical; details: 1 μM, relative to DMSO
Text: In this system, Firefly luciferase (FLuc) translation is cap-dependent whereas Renilla luciferase (RLuc) expression HCV-IRES dependent. […] Results are presented relative to values obtained in the presence of DMSO ad expressed as mean±error of two biological replicates.
In this system, translation of the Firefly luciferase (FLuc) translation is cap-dependent whereas Renilla luciferase (RLuc) translation is dependent upon the HCV internal ribosome entry site (IRES) FIG. 11A.
In vitro transcriptions and translations were performed as described previously. Plasmid encoding the bicistronic FF/HCV/Ren open reading frame was linearized with BamHI and m^7Gppp-capped mRNA was produced by in vitro transcription reactions using SP6 RNA polymerase. In vitro translation reactions were performed with S10 extracts prepared from Kreb-2 cells and programmed with 4 ng/uL of in vitro transcribed mRNA. Firefly (FF) and Renilla (Ren) luciferase activities were measured on a Berthold Lumat LB9507 Luminometer and values normalized against vehicle control, which was set at 1.

[4] = Cytotoxicity, CellTiter-Glo Cell Viability Luminescent Assay; type: cell-based, human; details: human; Huh7.5.1 cells, 3 h treatment, viability after 72 h; concentration giving 50% cell death
Protocol: as §1

Compound	inhibition of HCV infection (in words) (JFH-1 HCVcc-Luc)	cytotoxicity (in words) (Huh7.5.1 cells [2])	also measured
COC(=O)[C@H]1[C@@H](O)[C@@]2(O)c3c(OC)cc(O[C@@H]4O[C@@H]([C@H](O)CO)CO[C@H]4OC)cc3O[C@@]2(c2ccc(OC)cc2)[C@@H]1c1ccccc1 [silvestrol]	–	–	translation inhibition (in words) (translation): excellent translation inhibitor
COc1ccc(-c2nc3c(c(=O)[nH]2)[C@@H](c2ccccc2)[C@]2(c4ccc(OC)cc4)Oc4cc(OC)cc(OC)c4[C@]32O)cc1 (racemic) [12k, (5R,5aR,10bS)-10b-Hydroxy-8,10-dimethoxy-2,5a-bis(4-methoxyphenyl)-5-phenyl-3,5,5a,10b-tetrahydro-4H-benzofuro[2′,3′:4,5]cyclopenta[1,2-d]pyrimidin-4-one]	–	–	toxicity curve in MTS assay compared with CellTiter-Glo assay (Huh7.5.1 cells [1]): nearly identical toxicity curves
COc1ccc([C@@]23Oc4cc(OC)cc(OC)c4[C@]2(O)c2nc(-c4ccccc4)[nH]c(=O)c2[C@@H]3c2ccccc2)cc1 [12ah, (5S,5aR,10bS)-10b-Hydroxy-8,10-dimethoxy-5a-(4-methoxyphenyl)-2,5-diphenyl-3,5,5a,10b-tetrahydro-4H-benzofuro[2′,3′:4,5]cyclopenta[1,2-d]pyrimidin-4-one]	inactive	no cytotoxicity	–
COc1ccc([C@@]23Oc4cc(OC)cc(OC)c4[C@]2(O)c2nc(-c4cnccn4)[nH]c(=O)c2[C@H]3c2ccccc2)cc1 [12y, (5R,5aR,10bS)-10b-Hydroxy-8,10-dimethoxy-5a-(4-methoxyphenyl)-5-phenyl-2-(pyrazin-2-yl)-3,5,5a,10b-tetrahydro-4H-benzofuro[2′,3′:4,5]cyclopenta[1,2-d]pyrimidin-4-one]	slightly increased inhibition	–	–
COc1ccc([C@@]23Oc4cc(OC)cc(OC)c4[C@]2(OC)c2nc(-c4ccccc4)n(C)c(=O)c2[C@H]3c2ccccc2)cc1 [12ai, (5R,5aR,10bS)-8,10,10b-Trimethoxy-5a-(4-methoxyphenyl)-3-methyl-2,5-diphenyl-3,5,5a,10b-tetrahydro-4H-benzofuro[2′,3′:4,5]cyclopenta[1,2-d]pyrimidin-4-one]	–	–	EC50 (JFH-1 HCVcc-Luc): 9.2 µM
COc1ccc([C@@]23Oc4cc(OC)cc(OC)c4[C@]2(O)c2nc4n(c(=O)c2[C@H]3c2ccccc2)CCCC4)cc1 [12ad, (5aR,6R,13bS)-13b-Hydroxy-1,3-dimethoxy-5a-(4-methoxyphenyl)-6-phenyl-6,9,10,11,12,13b-hexahydrobenzofuro[2′,3′:4,5]cyclopenta[1,2-d]pyrido[1,2-a]pyrimidin-7(5aH)-one]	moderate antiviral activity	–	–
CONC(=O)[C@H]1[C@@H](O)[C@@]2(O)c3c(OC)cc(OC)cc3O[C@@]2(c2ccc(OC)cc2)[C@@H]1c1ccccc1 [CR-1-31-B, reference compound]	–	–	translation inhibition of firefly luciferase (cap-dependent) [3]: strong inhibition
COc1ccc([C@]23Oc4cc(OC)cc(OC)c4[C@@]2(O)c2nc(-c4cccc(OC)c4)[nH]c(=O)c2[C@@H]3c2ccccc2)cc1 [(−)-12s]	inactive	non-toxic	–
COc1ccc([C@]23Oc4cc(OC)cc(OC)c4[C@@]2(O)c2nc(-c4ccc(C)cc4)[nH]c(=O)c2[C@@H]3c2ccccc2)cc1 [(−)-12l]	inactive	non-toxic	–
COc1ccc([C@@]23Oc4cc(OC)cc(OC)c4[C@]2(O)c2nc(-c4ccccc4)nc(OC)c2[C@H]3c2ccccc2)cc1 [12aj, (5R,5aR,10bS)-4,8,10-Trimethoxy-5a-(4-methoxyphenyl)-2,5-diphenyl-5,5a-dihydro-10bH-benzofuro[2′,3′:4,5]cyclopenta[1,2-d]pyrimidin-10b-ol]	inactive	non-toxic	–
COc1ccc([C@@]23Oc4cc(OC)cc(OC)c4[C@]2(O)c2nc(C4CC4)[nH]c(=O)c2[C@H]3c2ccccc2)cc1 [12h, (5R,5aR,10bS)-2-Cyclopropyl-10b-hydroxy-8,10-dimethoxy-5a-(4-methoxyphenyl)-5-phenyl-3,5,5a,10b-tetrahydro-4H-benzofuro[2′,3′:4,5]cyclopenta[1,2-d]pyrimidin-4-one]	increased inhibition	–	–
COc1ccc([C@@]23Oc4cc(OC)cc(OC)c4[C@]2(O)c2nc(Nc4ccccc4)n(-c4ccccc4)c(=O)c2[C@H]3c2ccccc2)cc1 [12af, (5R,5aR,10bS)-10b-Hydroxy-8,10-dimethoxy-5a-(4-methoxyphenyl)-3,5-diphenyl-2-(phenylamino)-3,5,5a,10b-tetrahydro-4H-benzofuro[2′,3′:4,5]cyclopenta[1,2-d]pyrimidin-4-one]	moderate antiviral activity	–	–
COc1ccc([C@@]23Oc4cc(OC)cc(OC)c4[C@]2(O)c2nc(-c4ccccc4)n(C)c(=O)c2[C@H]3c2ccccc2)cc1 [12ae, (5R,5aR,10bS)-10b-Hydroxy-8,10-dimethoxy-5a-(4-methoxyphenyl)-3-methyl-2,5-diphenyl-3,5,5a,10b-tetrahydro-4H-benzofuro[2′,3′:4,5]cyclopenta[1,2-d]pyrimidin-4-one]	–	plateauing of cytotoxicity	EC50 (JFH-1 HCVcc-Luc): 0.2 µM; CC50 [4]: 7.3 µM
COc1ccc([C@@]23Oc4cc(OC)cc(OC)c4[C@]2(O)c2nc(-c4ccccc4)[nH]c(=O)c2[C@H]3c2ccccc2)cc1 [12a, (5R,5aR,10bS)-10b-Hydroxy-8,10-dimethoxy-5a-(4-methoxyphenyl)-2,5-diphenyl-3,5,5a,10b-tetrahydro-4H-benzofuro[2′,3′:4,5]cyclopenta[1,2-d]pyrimidin-4-one]	promising increase of inhibition	plateauing of cytotoxicity	EC50 (JFH-1 HCVcc-Luc): 0.42 µM; CC50 [4]: 8.1 µM
COc1ccc([C@@]23Oc4cc(OC)cc(OC)c4[C@]2(O)c2nc(-c4ccccn4)[nH]c(=O)c2[C@H]3c2ccccc2)cc1 [12ab, (5R,5aR,10bS)-10b-Hydroxy-8,10-dimethoxy-5a-(4-methoxyphenyl)-5-phenyl-2-(pyridin-2-yl)-3,5,5a,10b-tetrahydro-4H-benzofuro[2′,3′:4,5]cyclopenta[1,2-d]pyrimidin-4-one]	slightly increased inhibition	–	–
COc1ccc([C@@]23Oc4cc(OC)cc(OC)c4[C@]2(O)c2nc(C4CCCCC4)[nH]c(=O)c2[C@H]3c2ccccc2)cc1 [12e, (5R,5aR,10bS)-2-Cyclohexyl-10b-hydroxy-8,10-dimethoxy-5a-(4-methoxyphenyl)-5-phenyl-3,5,5a,10b-tetrahydro-4H-benzofuro[2′,3′:4,5]cyclopenta[1,2-d]pyrimidin-4-one]	–	plateauing of cytotoxicity	EC50 (JFH-1 HCVcc-Luc): 2.5 µM
COc1ccc([C@@]23Oc4cc(OC)cc(OC)c4[C@]2(O)c2nc(N4CCOCC4)[nH]c(=O)c2[C@H]3c2ccccc2)cc1 [12j, (5R,5aR,10bS)-10b-Hydroxy-8,10-dimethoxy-5a-(4-methoxyphenyl)-2-morpholino-5-phenyl-3,5,5a,10b-tetrahydro-4H-benzofuro[2′,3′:4,5]cyclopenta[1,2-d]pyrimidin-4-one]	moderate antiviral activity	–	–
